Measurements from US6346536B1, “Poly(ADP-ribose) polymerase inhibitors and method for treating neural or cardiovascular tissue damage using the same” (Guilford Pharmaceuticals Inc., priority 1997, dated 2002).
Like-named read-outs stand apart in the source and are kept apart here.

Tests used:
[1] = target: T1, purified recombinant human PARP (Homo sapiens, UniProt P09874); assay: PARP enzyme assay using purified recombinant human PARP, [3H]NAD incorporation; type: biochemical; conditions: 25° C., 15 minutes, 3.0 micromolar [3H]NAD, read-out: Approximate IC50's
T1 construct: purchased Trevigen (Gaithersburg, Md.)
Procedure: The reaction is initiated by incubating the mixture at 25° C. After 15 minutes' incubation, the reaction is terminated by adding 500 microliters of ice cold 20% (w/v) trichloroacetic acid. The precipitate formed is transferred onto a glass fiber filter (Packard Unifilter-GF/B) and washed three times with ethanol. After the filter is dried, the radioactivity is determined by scintillation counting.

[2] = system: ischemia and reperfusion of the heart; conditions: rabbits, cited from earlier work
[3] = system: PARP; conditions: read-out: IC50 for inhibiting PARP; reported by Suto et al.; cited from earlier work
[4] = system: cell viability, glucose metabolism, and DNA synthesis; conditions: Milam et al., Science 1984; cited from earlier work

T1 sequence (P09874 whole entry): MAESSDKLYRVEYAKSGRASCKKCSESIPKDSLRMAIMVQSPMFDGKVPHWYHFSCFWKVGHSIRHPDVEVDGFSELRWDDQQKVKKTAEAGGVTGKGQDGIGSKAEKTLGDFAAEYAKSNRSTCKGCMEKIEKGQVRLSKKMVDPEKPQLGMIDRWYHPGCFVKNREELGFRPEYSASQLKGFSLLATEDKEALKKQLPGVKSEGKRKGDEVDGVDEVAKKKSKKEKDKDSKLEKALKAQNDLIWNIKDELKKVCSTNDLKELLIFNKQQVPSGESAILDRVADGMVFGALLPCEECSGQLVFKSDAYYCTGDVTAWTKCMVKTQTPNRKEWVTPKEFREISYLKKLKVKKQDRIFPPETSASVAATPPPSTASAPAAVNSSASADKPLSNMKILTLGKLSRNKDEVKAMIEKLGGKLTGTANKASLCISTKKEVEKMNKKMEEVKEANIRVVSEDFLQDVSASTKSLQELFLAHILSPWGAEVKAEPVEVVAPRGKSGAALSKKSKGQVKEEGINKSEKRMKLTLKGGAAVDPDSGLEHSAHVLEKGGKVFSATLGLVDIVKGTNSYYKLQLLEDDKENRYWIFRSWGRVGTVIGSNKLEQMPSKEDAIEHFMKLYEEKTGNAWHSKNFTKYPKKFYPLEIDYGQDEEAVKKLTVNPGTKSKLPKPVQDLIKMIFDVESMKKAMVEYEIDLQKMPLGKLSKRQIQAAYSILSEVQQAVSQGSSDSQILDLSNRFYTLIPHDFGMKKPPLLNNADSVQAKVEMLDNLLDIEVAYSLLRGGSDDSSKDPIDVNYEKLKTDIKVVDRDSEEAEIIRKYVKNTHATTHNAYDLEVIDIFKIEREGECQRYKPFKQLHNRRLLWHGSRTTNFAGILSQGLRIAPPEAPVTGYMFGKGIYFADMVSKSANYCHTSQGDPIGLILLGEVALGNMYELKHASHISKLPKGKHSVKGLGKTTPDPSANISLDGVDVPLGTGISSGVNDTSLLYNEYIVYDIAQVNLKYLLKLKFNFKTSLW

O=c1[nH]cc([N+](=O)[O-])c2ccccc12
IC50 [1]: 5 µM

O=c1[nH]c(-c2ccccc2)cc2ccccc12
IC50 ([1]; unit μm [sic]): 30 µM

O=C(O)c1c[nH]c(=O)c2ccccc12
IC50 [1]: 10 µM

O=c1[nH]ccc2c([N+](=O)[O-])cccc12
IC50 [1]: 10 µM

COC(=O)c1c[nH]c(=O)c2ccccc12
IC50 [1]: 0.8 µM

Oc1cccc2c(O)nccc12 [1,5-dihydroxyisoquinoline]
reduction in infarct size ([2]; single injection 1 mg/kg): 38-48%

O=C1NCCc2c(OCCCCN3CCCCC3)cccc21 [3,4-dihydro-5-[4-(1-piperidinyl)butoxy]1(2H)-isoquinolinone]
IC50 [3]: 0.04 µM

NC(=O)c1cccc(N)c1 [3-aminobenzamide]
reduction in infarct size in the heart ([2]; single injection 10 mg/kg, one minute before occlusion or one minute before reperfusion): 32-42% | side effects on other metabolic processes [4]: affect cell viability, glucose metabolism, and DNA synthesis

NC(=O)c1ccccc1 [benzamide]
side effects on other metabolic processes [4]: affect cell viability, glucose metabolism, and DNA synthesis
